16 molecules from ChEMBL document CHEMBL1150028, “-((Tetronoyl)oxy)- and -((tetramoyl)oxy)methyl ketone inhibitors of the interleukin-1 converting enzyme (ICE)” (Bioorg Med Chem Lett, 1997) can be followed below.

A short description of data set [1]: Stability of compound was determined by its half life period. In kind it is physicochemical.
The target in another data set is T1, Caspase-1 (Homo sapiens) (UniProt P29466).
T1 sequence (whole entry): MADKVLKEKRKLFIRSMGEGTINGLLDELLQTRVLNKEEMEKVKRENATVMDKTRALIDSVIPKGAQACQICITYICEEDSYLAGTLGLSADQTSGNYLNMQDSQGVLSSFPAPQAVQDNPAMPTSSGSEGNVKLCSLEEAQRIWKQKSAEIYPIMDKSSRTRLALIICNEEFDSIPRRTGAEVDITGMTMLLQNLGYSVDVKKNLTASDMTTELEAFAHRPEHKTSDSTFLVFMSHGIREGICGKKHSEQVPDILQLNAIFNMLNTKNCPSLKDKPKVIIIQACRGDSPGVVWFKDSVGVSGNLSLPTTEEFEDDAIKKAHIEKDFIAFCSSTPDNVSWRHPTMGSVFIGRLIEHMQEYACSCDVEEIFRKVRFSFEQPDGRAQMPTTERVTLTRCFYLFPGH
As to the kind of experiment: Inhibitory activity against IL-1 beta converting enzyme was determined.

Molecules are shown by their SMILES.

Take `CC(C)[C@H](NC(=O)OCc1ccccc1)C(=O)N[C@@H](C)C(=O)N[C@@H](CC(=O)O)C(=O)COC1=C(Cc2ccccc2)C(=O)OC1`: the half-life in data set [1] was 20 h.

`CC(C)[C@H](NC(=O)OCc1ccccc1)C(=O)N[C@@H](CC(=O)O)C(=O)COC1=C(c2ccccc2)C(=O)NC1` gave a half-life in data set [1] of 95 h. The molecule also returned a K obs / 1 at Caspase-1 (Homo sapiens) of 8500 M⁻¹ s⁻¹.

Molecule `O=C(O)C[C@H](NC(=O)OCc1ccccc1)C(=O)COC1=C(Cc2ccccc2)C(=O)OC1` gave a half-life in data set [1] of 9.8 h. The molecule also yielded a K obs / 1 on Caspase-1 (Homo sapiens) of 2850 M⁻¹ s⁻¹.

On to `O=C(O)C[C@H](NC(=O)OCc1ccccc1)C(=O)COC(=O)c1c(Cl)cccc1Cl`, for which the K obs / 1 at Caspase-1 (Homo sapiens) was 7100 M⁻¹ s⁻¹.

`COc1ccc(C2=C(OCC(=O)[C@H](CC(=O)O)NC(=O)OCc3ccccc3)COC2=O)cc1` displayed a K obs / 1 at Caspase-1 (Homo sapiens) of 4000 M⁻¹ s⁻¹.

Molecule `O=C(O)C[C@H](NC(=O)OCc1ccccc1)C(=O)COC1=CC(=O)OC1` returned a K obs / 1 at Caspase-1 (Homo sapiens) of 188 M⁻¹ s⁻¹.

In turn, `CC(C)[C@H](NC(=O)OCc1ccccc1)C(=O)N[C@@H](CC(=O)O)C(=O)COC1=C(c2ccccc2)C(=O)OC1` yielded a K obs / 1 at Caspase-1 (Homo sapiens) of 27900 M⁻¹ s⁻¹.

As to `Cc1ccc(C2=C(OCC(=O)[C@H](CC(=O)O)NC(=O)OCc3ccccc3)COC2=O)cc1`, at Caspase-1 (Homo sapiens), the K obs / 1 was 4500 M⁻¹ s⁻¹.

Turning to `O=C(O)C[C@H](NC(=O)OCc1ccccc1)C(=O)COC1=C(c2ccccc2)C(=O)OC1`, in data set [1], the half-life is 0.86 h. For the same molecule, the K obs / 1 at Caspase-1 (Homo sapiens) amounted to 5700 M⁻¹ s⁻¹.

In the case of `O=C(O)C[C@H](NC(=O)OCc1ccccc1)C(=O)COC1=C(c2ccccc2)C(=O)CC1`, the half-life in data set [1] is 3.9 h. This molecule also had a K obs / 1 at Caspase-1 (Homo sapiens) of 3070 M⁻¹ s⁻¹.

At Caspase-1 (Homo sapiens), `O=C(O)C[C@H](NC(=O)OCc1ccccc1)C(=O)COC1=C(c2ccc(Cl)cc2)C(=O)OC1` showed a K obs / 1 of 4100 M⁻¹ s⁻¹.

Molecule `CC(C)[C@H](NC(=O)OCc1ccccc1)C(=O)N[C@@H](CC(=O)O)C(=O)COC(=O)c1c(Cl)cccc1Cl` returned a K obs / 1 on Caspase-1 (Homo sapiens) of 41000 M⁻¹ s⁻¹.

Consider `O=C(O)C[C@H](NC(=O)OCc1ccccc1)C(=O)COC1=C(Cl)C(=O)OC1`, for which, on Caspase-1 (Homo sapiens), the K obs / 1 was less than 25 M⁻¹ s⁻¹.

For the molecule `O=C(O)C[C@H](NC(=O)OCc1ccccc1)C(=O)COC1=C(c2ccc(Cl)c(Cl)c2)C(=O)OC1`, the K obs / 1 on Caspase-1 (Homo sapiens) was found to be 640 M⁻¹ s⁻¹.

`CC1(C)OC(=O)C(c2ccccc2)=C1OCC(=O)[C@H](CC(=O)O)NC(=O)OCc1ccccc1` registered a K obs / 1 on Caspase-1 (Homo sapiens) of 260 M⁻¹ s⁻¹.

For the molecule `CC(C)[C@H](NC(=O)OCc1ccccc1)C(=O)N[C@@H](CC(=O)O)C(=O)COC1=C(Cc2ccccc2)C(=O)OC1`, the K obs / 1 at Caspase-1 (Homo sapiens) came out at 21200 M⁻¹ s⁻¹.

One may read the half-life as the time in which the quantity being followed falls by half. Low values mean fast loss, high ones slow loss.
